Assay results reported in US11279687B2, “Compounds and compositions for the inhibition of NAMPT” (Valo Health, Inc., priority 2010, dated 2022).
pIC50: −log10 of the molar value. Read-outs that look alike come from different tables or passages of the source.

Columns and labels:
[1] = target: NAMPT (Homo sapiens (Human), UniProt P43490); assay: NAMPT biochemical inhibition assay (NMN quantified by mass spectrometry); settings: NAMPT biochemical inhibition; read-out: Biochem IC50
[2] = system: A2780 cells; assay: In-vitro cell proliferation assay (SRB), A2780 cells; format: cell-based; settings: A2780 cells, 72 hours, SRB, read-out: A2780 IC50;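 note: viable cell number read as SRB absorbance, background from media-only wells subtracted, IC50 interpolated from percent inhibition at two bracketing compound concentrations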

Chain of NAMPT (P43490 whole entry): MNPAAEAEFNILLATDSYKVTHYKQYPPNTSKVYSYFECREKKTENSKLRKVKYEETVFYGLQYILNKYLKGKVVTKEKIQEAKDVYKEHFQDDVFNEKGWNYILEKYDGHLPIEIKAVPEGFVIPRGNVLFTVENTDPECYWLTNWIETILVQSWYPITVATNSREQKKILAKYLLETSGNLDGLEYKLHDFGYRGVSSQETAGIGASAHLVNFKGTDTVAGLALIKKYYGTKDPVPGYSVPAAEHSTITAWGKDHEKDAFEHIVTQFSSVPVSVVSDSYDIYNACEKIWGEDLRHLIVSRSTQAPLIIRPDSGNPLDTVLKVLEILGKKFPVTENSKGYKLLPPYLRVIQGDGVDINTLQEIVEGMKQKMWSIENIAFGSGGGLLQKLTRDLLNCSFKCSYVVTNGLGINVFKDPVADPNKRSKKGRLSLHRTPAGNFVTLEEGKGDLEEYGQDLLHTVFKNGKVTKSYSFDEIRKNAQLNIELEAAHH

Row | pIC50 [1] | pIC50 ([2]; Homo sapiens, A2780, 72 h) | SMILES | pIC50 [2]
1 | 8.70 | 7.04 | CS(=O)(=O)c1ccc(S(=O)(=O)c2ccc(NC(=O)NCc3cccnc3)cc2)cc1 [3-{4-[(4-methanesulfonylbenzene)sulfonyl]phenyl}-1-(pyridin-3-ylmethyl)urea] | 
2 | 8.10 | 6.45 | COc1ccc(S(=O)(=O)c2ccc(NC(=O)NCc3cccnc3)cc2)c(C)c1 [3-{4-[(4-methoxy-2-methylbenzene)sulfonyl]phenyl}-1-(pyridin-3-ylmethyl)urea] | 
3 | 8.68 | 8.05 | COc1c(C)cc(S(=O)(=O)c2ccc(NC(=O)NCc3cccnc3)cc2)cc1C [3-{4-[(4-methoxy-3,5-dimethylbenzene)sulfonyl]phenyl}-1-(pyridin-3-ylmethyl)urea] | 
4 | 8.62 | 6.00 to 7.00 | COc1ccc(S(=O)(=O)c2ccc(NC(=O)NCc3cccnc3)cc2)cc1 [3-{4-[(4-methoxybenzene)sulfonyl]phenyl}-1-(pyridin-3-ylmethyl)urea] | 
5 | 8.36 | 6.85 | Cc1ccc(S(=O)(=O)c2ccc(NC(=O)NCc3cccnc3)cc2)cc1 [3-{4-[(4-methylbenzene)sulfonyl]phenyl}-1-(pyridin-3-ylmethyl)urea] | 
6 | 8.85 | 7.01 | CC(C)(C)c1ccc(NS(=O)(=O)c2ccc(NC(=O)NCc3cccnc3)cc2)c(Cl)c1 [3-{4-[(4-tert-butyl-2-chlorophenyl)sulfamoyl]phenyl}-1-(pyridin-3-ylmethyl)urea] | 
7 | 8.89 | 8.77 | COc1ccc(C(C)=O)cc1S(=O)(=O)c1ccc(NC(=O)NCc2cccnc2)cc1 [3-{4-[(5-acetyl-2-methoxybenzene)sulfonyl]phenyl}-1-(pyridin-3-ylmethyl)urea] | 
8 | 8.30 | 7.68 | COc1ccc(Cl)cc1S(=O)(=O)c1ccc(NC(=O)NCc2cccnc2)cc1 [3-{4-[(5-chloro-2-methoxybenzene)sulfonyl]phenyl}-1-(pyridin-3-ylmethyl)urea] | 
9 | 9.00 | 7.46 | Cc1ccc(Cl)cc1NS(=O)(=O)c1ccc(NC(=O)NCc2cccnc2)cc1 [3-{4-[(5-chloro-2-methylphenyl)sulfamoyl]phenyl}-1-(pyridin-3-ylmethyl)urea] | 
10 | 8.70 | 8.40 | COc1ccc(F)cc1S(=O)(=O)c1ccc(NC(=O)NCc2cccnc2)cc1 [3-{4-[(5-fluoro-2-methoxybenzene)sulfonyl]phenyl}-1-(pyridin-3-ylmethyl)urea] | 
11 | 9.00 | 7.48 | COc1ccc(F)cc1NS(=O)(=O)c1ccc(NC(=O)NCc2cccnc2)cc1 [3-{4-[(5-fluoro-2-methoxyphenyl)sulfamoyl]phenyl]-1-(pyridin-3-ylmethyl)urea] | 
12 | 8.40 | 6.31 | Cc1ccc(F)cc1S(=O)(=O)c1ccc(NC(=O)NCc2cccnc2)cc1 [3-{4-[(5-fluoro-2-methylbenzene)sulfonyl]phenyl}-1-(pyridin-3-ylmethyl)urea] | 
13 | 8.70 | 7.10 | COc1ccc(C)c(NS(=O)(=O)c2ccc(NC(=O)NCc3cccnc3)cc2)c1 [3-{4-[(5-methoxy-2-methylphenyl)sulfamoyl]phenyl}-1-(pyridin-3-ylmethyl)urea] | 
14 | 9.05 | 8.15 | CCN(Cc1ccccc1)S(=O)(=O)c1ccc(NC(=O)NCc2cccnc2)cc1 [3-{4-[benzyl(ethyl)sulfamoyl]phenyl}-1-(pyridin-3-ylmethyl)urea] | 
15 | 8.96 | 6.97 | CN(Cc1ccccc1)S(=O)(=O)c1ccc(NC(=O)NCc2cccnc2)cc1 [3-{4-[benzyl(methyl)sulfamoyl]phenyl}-1-(pyridin-3-ylmethyl)urea] | 
16 | 8.70 | 7.59 | CC(C)N(Cc1ccccc1)S(=O)(=O)c1ccc(NC(=O)NCc2cccnc2)cc1 [3-{4-[benzyl(propan-2-yl)sulfamoyl]phenyl}-1-(pyridin-3-ylmethyl)urea] | 
17 | 8.30 | 6.91 | CCN(C1CCCCC1)S(=O)(=O)c1ccc(NC(=O)NCc2cccnc2)cc1 [3-{4-[cyclohexyl(ethyl)sulfamoyl]phenyl}-1-(pyridin-3-ylmethyl)urea] | 
18 | 8.10 | 8.22 | O=C(NCc1ccc2nccn2c1)Nc1ccc(S(=O)(=O)N2CC3CCC(C2)O3)cc1 [3-{imidazo[1,2-a]pyridin-6-ylmethyl}-1-(4-{8-oxa-3-azabicyclo[3.2.1]octane-3-sulfonyl}phenyl)urea] | 
19 | 5.72 | 5.56 | O=C(Nc1cccnc1)c1ccc(S(=O)(=O)c2ccccc2)cc1 [4-(benzenesulfonyl)-N-(pyridin-3-yl)benzamide] | 
20 | 7.09 | 6.67 | O=C(NCc1cccnc1)c1ccc(S(=O)(=O)c2ccccc2)cc1 [4-(benzenesulfonyl)-N-(pyridin-3-ylmethyl)benzamide] | 
21 | 6.19 | 5.88 | O=C(Nc1ccncc1)c1ccc(S(=O)(=O)c2ccccc2)cc1 [4-(benzenesulfonyl)-N-(pyridin-4-yl)benzamide] | 
22 | 7.51 | 7.59 | O=C(NCc1ccn2ccnc2c1)c1ccc(S(=O)(=O)c2ccccc2)cc1 [4-(benzenesulfonyl)-N-{imidazo[1,2-a]pyridin-7-ylmethyl}benzamide] | 
23 | 7.71 | 8.41 | O=C(NCc1ccc2nccn2c1)c1ccc(S(=O)(=O)c2ccccc2Cl)cc1 [4-[(2-chlorobenzene)sulfonyl]-N-{imidazo[1,2-a]pyridin-6-ylmethyl}benzamide] | 
24 | 7.75 | 8.24 | O=C(NCc1ccc2nccn2c1)c1ccc(S(=O)(=O)c2cc(F)cc(F)c2)cc1 [4-[(3,5-difluorobenzene)sulfonyl]-N-{imidazo[1,2-a]pyridin-6-ylmethyl}benzamide] | 
25 | 7.92 | 8.19 | O=C(NCc1ccc2nccn2c1)c1ccc(S(=O)(=O)c2cccc(Cl)c2)cc1 [4-[(3-chlorobenzene)sulfonyl]-N-{imidazo[1,2-a]pyridin-6-ylmethyl}benzamide] | 
26 | 6.86 | 8.15 | O=C(NCc1ccc2nccn2c1)c1ccc(S(=O)(=O)Nc2cccc(Cl)c2)cc1 [4-[(3-chlorophenyl)sulfamoyl]-N-{imidazo[1,2-a]pyridin-6-ylmethyl}benzamide] | 
27 | 5.33 | 7.51 | COc1ccc(Cl)cc1NS(=O)(=O)c1ccc(C(=O)NCCc2cccnc2)cc1 [4-[(5-chloro-2-methoxyphenyl)sulfamoyl]-N-[2-(pyridin-3-yl)ethyl]benzamide] | 
28 | 8.67 | 8.64 | COc1ccc(Cl)cc1NS(=O)(=O)c1ccc(C(=O)NCc2ccc3nccn3c2)cc1 [4-[(5-chloro-2-methoxyphenyl)sulfamoyl]-N-{imidazo[1,2-a]pyridin-6-ylmethyl}benzamide] | 
29 | < 5.00 | 4.56 | NC(=O)c1ccc(CNC(=O)Nc2ccc(S(=O)(=O)N3CCCCC3)cc2)cn1 [5-[({[4-(piperidine-1-sulfonyl)phenyl]carbamoyl}amino)methyl]pyridine-2-carboxamide] | 

Row | SMILES | pIC50 [1] | pIC50 ([2]; Homo sapiens, A2780, 72 h) | pIC50 [2]
30 | O=C(NCc1ccc[n+]([O-])c1)Nc1ccc([S+]([O-])c2ccc(Cl)cc2)cc1 (centres unmarked) [3-{[({4-[(4-chlorobenzene)sulfinyl]phenyl}carbamoyl)amino]methyl}pyridin-1-ium-1-olate] | 6.35 |  | 4.69
31 | O=C(NCc1ccc[n+]([O-])c1)Nc1ccc(S(=O)(=O)c2ccc(Cl)cc2)cc1 [3-{[({4-[(4-chlorobenzene)sulfonyl]phenyl}carbamoyl)amino]methyl}pyridin-1-ium-1-olate] | 6.14 |  | < 4.52
